Data: patent publication US20260200926A1, “TREM2 MODULATORS” (Muna Therapeutics ApS, priority 2022, published 2026)

Biological target: T1, Human TREM2 (Homo sapiens, UniProt Q9NZC2)
T1 construct: expressed in transfected cells
Experiment: Human TREM2 activity: cellular phosphorylation of Syk (AlphaLISA SureFire Ultra p-SYK) in HEK293/DAP12+TREM2 stable cell line
Type: cell-based
Conditions: for Emax: HEK293, maximal response relative to reference agonist example 1B (remaining examples), read-out: Emax; for EC50: phospho-Syk AlphaLISA signal, HEK293/DAP12+TREM2 cells, concentration giving 50% of maximal response, read-out: EC50
Source text: Human TREM2, in vitro Measurement of Triggering Receptor Expressed on Myeloid Cells 2 activity using cellular phosphorylation of Spleen Tyrosine Kinase (“Syk”) Assay
HEK-293 cells were co-transfected with separate plasmids encoding TREM2 and DAP12 to generate a stable cell line. After antibiotic selection, functional clone pool analysis and two successive limiting dilutions, the final clone “HEK293/DAP12+TREM2” underwent a qPCR analysis and a pharmacological validation.
TREM2 signaling through DAP12 was monitored in the HEK293/DAP12+TREM2 stable cell line by measuring the phosphorylation levels of the Syk kinase using the commercially available AlphaLISA SureFire Ultra p-SYK (Tyr525/526) Assay Kit (PerkinElmer #ALSU-PSYK), based on the Perkin Elmer AlphaScreen/AlphaLISA technology.
Compounds are transferred to the test plate and tested in full dose response, 8 concentrations in quadruplicate data points. Compound serial dilutions were performed at Cybi-Felix instrument in 100% DMSO and the dose response curves were assembled in automated fashion in 384MPT at Hamilton STARlet instrument. All the stock solutions were prepared at 20 mM in 100% DMSO. For compounds testing, the starting concentration was 100 μM, dilution steps 1:6. […] Finally, a 384MPT reformatted for all compounds at 8 concentrations, quadruplicates, was used as “mother to child” process with a CyBi®-Well dispenser in which 1 μL of each compound was moved into a destination plate pre-filled with 65.6 μL of EMEM cell culture medium (BIOWHITTAKER_cat.BE12-125F), thus obtaining 3× concentrated compounds working solution. In columns 1-2 and 23-24 the control wells were added. In particular, dose response curves of a reference control agonist were included in column 1 and 24 as reference control agonist (Reference control agonists used include Human TREM2 polyclonal Antibody AF1828: R&D Systems; Human TREM2 monoclonal Antibody MAB1828: R&D Systems). The dose response curves were tested starting at 30 μM, dilution step 1:6. Both “source” compound plate and “destination” compound plate were barcoded and a relationship between the two plates was thus generated.
HEK293/DAP12+TREM2 cells were cultured in EMEM medium supplemented with IX Penicillin/Streptomycin (BIOWHITTAKER_cat.DE17-602E), ULTRAGLUTAMINE I 200 mM, 10% Fetal Bovine Serum plus antibiotics referred to as “HEK293 Culture Medium”. The day before the experiment, cells were detached by gentle wash with DPBS, followed by 5 min incubation at 37° C. with Trypsin solution. Cells were then diluted in HEK293 Culture Medium without antibiotics, counted and seeded into 384-well poly-D-Lysine coated microplates black/clear bottom (GREINER 781946) at a density of 10,000 cells/well in 25 μL/well by the use of a MATRIX WellMate dispenser. Plates were placed into a humidified cell culture incubator at 37° C. with 5% CO2 until the experimental day. 20-24 hours after seeding mature medium was removed and replaced with 10 μL/well of EMEM cell medium supplemented with 0.1% Pluronic F-68 non-ionic surfactant (Thermofisher, 24040032), referred to as “Assay Buffer”, using the CyBi®-Well instrument. Then 5 μL/well of Assay Buffer containing 3× concentrated test compounds or the reference control agonist (in 0.5% final DMSO concentration) were added to the cells with the CyBi®-Well instrument. Cell plates were incubated for 30 min into a humidified cell culture incubator at 37° C. with 5% CO2·, then the medium was removed by manually discard. 20 μL/well of lysis buffer were dispensed using the CyBi®-Well instrument and plates were incubated for 10 min at room temperature on a plate shaker (350 rpm). Then, 10 μL/well of lysate were transferred to the Alpha plates. The CyBi®-Well instrument was used to dispense 5 μL/well of AlphaLISA Acceptor Bead Solution in IX Immunoassay buffer (Perkin Elmer AL000F). Then the plates were sealed with Heat sealing foil, shaked for 2 minutes (350 rpm) and incubated for 1 hour at room temperature.

T1 sequence (Q9NZC2 19-230): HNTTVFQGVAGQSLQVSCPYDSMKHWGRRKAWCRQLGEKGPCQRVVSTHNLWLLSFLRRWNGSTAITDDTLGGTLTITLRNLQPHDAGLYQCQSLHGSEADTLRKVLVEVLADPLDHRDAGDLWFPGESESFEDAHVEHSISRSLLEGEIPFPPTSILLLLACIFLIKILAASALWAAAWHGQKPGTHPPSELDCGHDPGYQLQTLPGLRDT
T1 sequence (O43914 22-113 partner): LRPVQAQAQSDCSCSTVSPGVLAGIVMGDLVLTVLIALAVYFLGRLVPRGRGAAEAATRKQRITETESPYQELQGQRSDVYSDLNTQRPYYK

SMILES	Emax	EC50
Cc1nc2c(-c3ccc(Cl)cc3F)nc([C@@]34CCO[C@@H](c5cnn(C6CC6)c5)[C@@H]3C4)nc2c(=O)n1C (single isomer, unassigned) [Example 116B]	< 75%	100 to 1000 nM
Cc1nc2c(-c3ccc(Cl)cc3F)cc(N3C[C@@H](c4cnn(C)c4)OC(C)(C)C3)cc2c(=O)n1C (single isomer, unassigned) [Example 117A]	75 to 110%	10 to 100 nM
Cc1nc2c(-c3ccc(Cl)cc3F)cc(N3C[C@H](c4cnn(C)c4)OC(C)(C)C3)cc2c(=O)n1C (single isomer, unassigned) [Example 117B]	< 75%	100 to 1000 nM
Cc1nc2c(-c3ccc(C(F)(F)F)cc3F)cc([C@@H]3CCO[C@H](c4cnn(C5CC5)c4)C3)cc2c(=O)n1C (single isomer, unassigned) [Example 118A]	75 to 110%	10 to 100 nM
Cc1nc2c(-c3ccc(C(F)(F)F)cc3F)cc([C@H]3CCO[C@@H](c4cnn(C5CC5)c4)C3)cc2c(=O)n1C (single isomer, unassigned) [Example 118B]	< 75%	> 1000 nM
Cc1nc2c(-c3ccc(Cl)cc3F)cc([C@@H]3CCO[C@H](c4cnn(C5CC5)c4)C3)cc2c(=O)n1C (single isomer, unassigned) [Example 119A]	< 75%	100 to 1000 nM
Cc1nc2c(-c3ccc(Cl)cc3F)cc([C@H]3CCO[C@@H](c4cnn(C5CC5)c4)C3)cc2c(=O)n1C (single isomer, unassigned) [Example 119B]	75 to 110%	1 to 10 nM
Cc1nc2c(-c3ccc(F)cc3F)nc([C@@H]3CCO[C@H](c4cnn(C5CC5)c4)C3)nc2c(=O)n1C (single isomer, unassigned) [Example 120A]	< 75%	> 1000 nM
Cc1nc2c(-c3ccc(F)cc3F)nc(N3C[C@@H](c4cnn(C)c4)OC(C)(C)C3)nc2c(=O)n1C (single isomer, unassigned) [Example 121A]	< 75%	100 to 1000 nM
Cc1nc2c(-c3ccc(F)cc3F)nc(N3C[C@H](c4cnn(C)c4)OC(C)(C)C3)nc2c(=O)n1C (single isomer, unassigned) [Example 121B]	< 75%	> 1000 nM
Cc1cc([C@@H]2CN(c3nc(-c4ccc(F)cc4F)c4nc(C)n(C)c(=O)c4n3)CCO2)ccn1 (single isomer, unassigned) [Example 122A]	75 to 110%	1 to 10 nM
Cc1cc([C@H]2CN(c3nc(-c4ccc(F)cc4F)c4nc(C)n(C)c(=O)c4n3)CCO2)ccn1 (single isomer, unassigned) [Example 122B]	< 75%	100 to 1000 nM
Cc1cc([C@@H]2CN(c3nc(-c4cc(F)c(F)cc4F)c4nc(C)n(C)c(=O)c4n3)CCO2)ccn1 (single isomer, unassigned) [Example 123A]	> 110%	1 to 10 nM
Cc1cc([C@H]2CN(c3nc(-c4cc(F)c(F)cc4F)c4nc(C)n(C)c(=O)c4n3)CCO2)ccn1 (single isomer, unassigned) [Example 123B]	75 to 110%	10 to 100 nM
Cc1cc([C@@H]2CN(c3nc(-c4ccc(C(F)(F)F)cc4F)c4nc(C)n(C)c(=O)c4n3)CC(C)(C)O2)ccn1 (single isomer, unassigned) [Example 124A]	75 to 110%	10 to 100 nM
Cc1cc([C@H]2CN(c3nc(-c4ccc(C(F)(F)F)cc4F)c4nc(C)n(C)c(=O)c4n3)CC(C)(C)O2)ccn1 (single isomer, unassigned) [Example 124B]	75 to 110%	1 to 10 nM
Cc1nc2c(-c3ccc(Cl)cc3F)nc(N3CCO[C@@H](c4cnn(C)c4)C3)cc2c(=O)n1C (single isomer, unassigned) [Example 125A]	75 to 110%	10 to 100 nM

SMILES	Emax	EC50
Cc1nc2c(-c3ccc(Cl)cc3F)nc(N3CCO[C@H](c4cnn(C)c4)C3)cc2c(=O)n1C (single isomer, unassigned) [Example 125B]	< 75%	10 to 100 nM
Cc1nc2c(-c3ccc(C(F)(F)F)cc3F)nc(N3CCO[C@@H](c4cnn(C)c4)C3)cc2c(=O)n1C (single isomer, unassigned) [Example 126A]	75 to 110%	1 to 10 nM
Cc1nc2c(-c3ccc(C(F)(F)F)cc3F)nc(N3CCO[C@H](c4cnn(C)c4)C3)cc2c(=O)n1C (single isomer, unassigned) [Example 126B]	< 75%	100 to 1000 nM
Cc1nc2c(-c3ccc(C(F)(F)F)nc3)nc(N3CCO[C@@H](c4cnn(C)c4)C3)cc2c(=O)n1C (single isomer, unassigned) [Example 127A]	< 75%	100 to 1000 nM
Cc1nc2c(-c3ccc(C(F)(F)F)nc3)nc(N3CCO[C@H](c4cnn(C)c4)C3)cc2c(=O)n1C (single isomer, unassigned) [Example 127B]	< 75%	> 1000 nM
Cc1cc([C@H]2CN(c3cc4c(=O)n(C)c(C)nc4c(-c4ccc(Cl)cc4F)n3)CC3(CC3)O2)ccn1 (single isomer, unassigned) [Example 128B]	75 to 110%	100 to 1000 nM
Cc1nc2c(-c3ccc(F)cc3F)nc(N3CCO[C@@H](c4cnn(C)c4)C3)cc2c(=O)n1C (single isomer, unassigned) [Example 129A]	75 to 110%	10 to 100 nM
Cc1nc2c(-c3ccc(F)cc3F)nc(N3CCO[C@H](c4cnn(C)c4)C3)cc2c(=O)n1C (single isomer, unassigned) [Example 129B]	< 75%	10 to 100 nM
Cc1nc2c(-c3cc(F)c(F)cc3F)nc(N3CCO[C@@H](c4cnn(C)c4)C3)cc2c(=O)n1C (single isomer, unassigned) [Example 130A]	< 75%	10 to 100 nM
Cc1nc2c(-c3cc(F)c(F)cc3F)nc(N3CCO[C@H](c4cnn(C)c4)C3)cc2c(=O)n1C (single isomer, unassigned) [Example 130B]	< 75%	100 to 1000 nM
Cc1nc2c(-c3ccc(Cl)cc3F)nc(N3CCO[C@H](c4cnn(C5CC5)c4)C3)cc2c(=O)n1C (single isomer, unassigned) [Example 131A]	75 to 110%	1 to 10 nM
Cc1nc2c(-c3ccc(Cl)cc3F)nc(N3CCO[C@@H](c4cnn(C5CC5)c4)C3)cc2c(=O)n1C (single isomer, unassigned) [Example 131B]	< 75%	100 to 1000 nM
Cc1nc2c(-c3ccc(C(F)(F)F)cc3F)nc(N3CCO[C@H](c4cnn(C5CC5)c4)C3)cc2c(=O)n1C (single isomer, unassigned) [Example 132A]	75 to 110%	1 to 10 nM
Cc1nc2c(-c3ccc(C(F)(F)F)cc3F)nc(N3CCO[C@@H](c4cnn(C5CC5)c4)C3)cc2c(=O)n1C (single isomer, unassigned) [Example 132B]	< 75%	100 to 1000 nM
Cc1nc2c(-c3cc(F)c(F)cc3F)nc(N3CCO[C@H](c4cnn(C5CC5)c4)C3)cc2c(=O)n1C (single isomer, unassigned) [Example 133A]	75 to 110%	10 to 100 nM
Cc1nc2c(-c3cc(F)c(F)cc3F)nc(N3CCO[C@@H](c4cnn(C5CC5)c4)C3)cc2c(=O)n1C (single isomer, unassigned) [Example 133B]	< 75%	100 to 1000 nM
Cc1nc2c(-c3ccc(C(F)(F)F)cc3F)nc(N3C[C@@H](c4cnn(C)c4)OC(C)(C)C3)cc2c(=O)n1C (single isomer, unassigned) [Example 134A]	75 to 110%	10 to 100 nM
